Values of other authors, collected in patent US20250186477A1, “COMPOSITIONS COMPRISING FLUDARABINE PHOSPHATE AND METHODS OF MAKING AND USING SAME TO TREAT CANCER” (Areva Pharmaceuticals Limited, priority 2023, published 2025).

Settings: refractory chronic lymphocytic leukemia patients receiving 22-40 mg/m^2 or 15-25 mg/m^2 fludarabine daily

Nc1nc(F)nc2c1ncn2[C@@H]1O[C@H](CO)[C@@H](O)[C@@H]1O [fludarabine, (2R,3S,4S,5R)-2-(6-amino-2-fluoropurin-9-yl)-5-(hydroxymethyl)oxolane-3,4-diol]
pneumonia: high rates of pneumonia
